Data on eight molecules can be found in ChEMBL document CHEMBL1201862, “PubChem BioAssay data set” (2004).

Structures are written as SMILES.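 Following 48 hours of exposure in 96-well plates, responses at five concentrations were used to interpolate endpoints linearly. At the GI50, growth is halved.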 Active and inactive are the calls of the source. Rule as the data show it: active = GI50 up to about 1.1 µM and inactive = higher.

Among the test systems are RPMI-8226; Hs-578T; A498; SK-MEL-5; OVCAR-3; SNB-19; LOX IMVI; UACC-257; SK-MEL-2; COLO 205; OVCAR-5; HL-60; PC-3; UACC-62; NCI-H226; HCT-15; NCI-H460; Malme-3M; SF-539; M14.
Test in all cases: inhibition of tumour cell growth, NCI panel, 48 h

As for `O=C1C=C(NCC(c2ccccc2)c2ccccc2)C(=O)c2ncccc21`, the GI50 in the assay on RPMI-8226 is 1.72 µM (inactive); with Hs-578T, 2.63 µM (inactive); in the assay with A498, 2.24 µM (inactive); in the assay on SK-MEL-5, 0.427 µM (active); in the assay on OVCAR-3 it was 0.991 µM (active); with SNB-19 it was 2.58 µM (inactive). The GI50 in the assay with LOX IMVI is 1.11 µM (active); in the assay on UACC-257 it was 0.877 µM (active); in the assay on SK-MEL-2 it was 2.28 µM (inactive); with COLO 205, 9.89 µM (inactive); in the assay on OVCAR-5, 5.14 µM (inactive); in the assay with HL-60 it was 1.15 µM (inactive). The GI50 in the assay on PC-3 is 1.75 µM (inactive); with UACC-62 it was 1.39 µM (inactive); in the assay on NCI-H226, 3.1 µM (inactive); in the assay on HCT-15, 0.504 µM; in the assay with NCI-H460, 0.518 µM (active); in the assay with Malme-3M it was 1.36 µM (inactive). In addition, the results for the GI50 in the assay with SF-539 and with M14 were 3.09 µM (inactive) and 1.61 µM (inactive), respectively.
Take `O=C(O)c1cc(-c2ccc3c(O)ccc(O)c3c2)ccc1O`: the GI50 with RPMI-8226 is 4.78 µM (inactive); in the assay on Hs-578T, 18.7 µM (inactive); in the assay on A498 it was 17.4 µM (inactive); with SK-MEL-5, 14.7 µM (inactive); in the assay with OVCAR-3 it was 20.9 µM (inactive); in the assay with SNB-19 it was 40.9 µM (inactive). Also, the GI50 in the assay with LOX IMVI is 11.5 µM (inactive); with UACC-257, 17.4 µM (inactive); in the assay with SK-MEL-2 it was 17.2 µM (inactive); in the assay with COLO 205 it was 19.5 µM (inactive); in the assay with OVCAR-5, 18.3 µM (inactive); in the assay with HL-60, > 100 µM (inactive). For the same molecule, the GI50 was 12.9 µM (inactive) in the assay on PC-3; 18.2 µM (inactive) with UACC-62; 19.7 µM (inactive) in the assay on NCI-H226; 16.9 µM in the assay on HCT-15; 20.5 µM (inactive) in the assay with NCI-H460; 18.7 µM (inactive) with Malme-3M. For the same molecule, the results for the GI50 in the assay with SF-539 and with M14 were 16 µM (inactive) and 21.9 µM (inactive), respectively.
Regarding `O=C(/C=C/c1ccc(O)c(O)c1)c1ccc(O)cc1O` [BUTEIN], the GI50 in the assay on RPMI-8226 is 10.5 µM (inactive); in the assay with Hs-578T it was 19.4 µM (inactive); in the assay on A498, 17.7 µM (inactive); in the assay with SK-MEL-5, 11.6 µM (inactive); in the assay on OVCAR-3, 15.4 µM (inactive); with SNB-19, 18.5 µM (inactive). The GI50 was 8.26 µM (inactive) with LOX IMVI; 15.6 µM (inactive) with UACC-257; 14.9 µM (inactive) in the assay on SK-MEL-2; 14.5 µM (inactive) with COLO 205; 17.4 µM (inactive) in the assay on OVCAR-5; 3.29 µM (inactive) in the assay on HL-60. The GI50 with PC-3 was 19.6 µM (inactive); with UACC-62, 16.9 µM (inactive); with NCI-H226, 17.3 µM (inactive); in the assay on HCT-15 it was 16.3 µM; in the assay with NCI-H460, 15.2 µM (inactive); in the assay with Malme-3M, 13.9 µM (inactive). Also, the GI50 in the assay with SF-539 was 11.2 µM (inactive); in the assay on M14, 16.3 µM (inactive).
As for `O=C1CN(/N=C/c2ccc(-c3ccc(F)cc3)o2)C(=O)N1`, the GI50 with RPMI-8226 is 28 µM (inactive); with Hs-578T it was 45.5 µM (inactive); in the assay with A498 it was 25.2 µM (inactive); in the assay with SK-MEL-5 it was 26.4 µM (inactive); in the assay with OVCAR-3, > 100 µM (inactive); with SNB-19, 83.9 µM (inactive). The GI50 was 26.6 µM (inactive) in the assay with LOX IMVI; 21.8 µM (inactive) in the assay with UACC-257; 34.6 µM (inactive) in the assay on SK-MEL-2; 29.7 µM (inactive) with COLO 205; > 100 µM (inactive) in the assay on OVCAR-5; 55.6 µM (inactive) in the assay with HL-60. The GI50 was > 100 µM (inactive) in the assay with PC-3; 45.5 µM (inactive) with UACC-62; 32.2 µM (inactive) in the assay on NCI-H226; 39 µM with HCT-15; 45.2 µM (inactive) in the assay with NCI-H460; 47.5 µM (inactive) in the assay on Malme-3M. The GI50 was 34.4 µM (inactive) in the assay with SF-539 and 75.3 µM (inactive) in the assay on M14.
Regarding `CN(C)CCNc1nc2ccccc2c2c1CCCC2`, the GI50 was 20.5 µM (inactive) with RPMI-8226; 32.7 µM (inactive) in the assay on Hs-578T; 17.2 µM (inactive) with A498; 15.3 µM (inactive) with SK-MEL-5; 30.8 µM (inactive) in the assay on OVCAR-3; 29.9 µM (inactive) in the assay with SNB-19. Besides, the GI50 is 17.8 µM (inactive) in the assay on LOX IMVI; 15.1 µM (inactive) in the assay on UACC-257; 17.2 µM (inactive) in the assay on SK-MEL-2; 22.9 µM (inactive) with COLO 205; 30.4 µM (inactive) with OVCAR-5; 14.8 µM (inactive) with HL-60. Also, the GI50 with PC-3 is 26.5 µM (inactive); in the assay on UACC-62 it was 16.4 µM (inactive); in the assay with NCI-H226, 21.1 µM (inactive); in the assay on HCT-15, 32 µM; in the assay on NCI-H460, 16 µM (inactive); in the assay with Malme-3M, 16.3 µM (inactive). Besides, the GI50 in the assay on SF-539 was 28.2 µM (inactive); in the assay with M14 it was 16.5 µM (inactive).
In the case of `CC(C)NC(=O)OCc1c(COC(=O)NC(C)C)c(-c2ccc(Cl)c(Cl)c2)n2c1CCC2`, the GI50 was 17.9 µM (inactive) in the assay with RPMI-8226; > 97.5 µM (inactive) with Hs-578T; 34 µM (inactive) in the assay with A498; 24.9 µM (inactive) in the assay with SK-MEL-5; 54 µM (inactive) with OVCAR-3; 56.5 µM (inactive) with SNB-19. For the same molecule, the GI50 with LOX IMVI is 46.8 µM (inactive); in the assay with UACC-257 it was 49.7 µM (inactive); in the assay with SK-MEL-2, 44.2 µM (inactive); in the assay on COLO 205 it was 52.8 µM (inactive); in the assay with OVCAR-5, 44.9 µM (inactive); in the assay with HL-60 it was 26.6 µM (inactive). Further, the GI50 is > 80.7 µM (inactive) in the assay with PC-3; 39.8 µM (inactive) in the assay with UACC-62; 28.1 µM (inactive) with NCI-H226; 52.7 µM in the assay with HCT-15; 36.6 µM (inactive) in the assay with NCI-H460; 47.1 µM (inactive) in the assay with Malme-3M. Moreover, the GI50 was 43.5 µM (inactive) in the assay with SF-539 and 35.9 µM (inactive) in the assay with M14.
For `Cc1occc1C(=S)Nc1ccc(Cl)c(/C=N/OC(C)(C)C)c1`, the GI50 was 16.7 µM (inactive) in the assay with RPMI-8226; 19.8 µM (inactive) with Hs-578T; 20.4 µM (inactive) in the assay with A498; 17.3 µM (inactive) in the assay on SK-MEL-5; 15.6 µM (inactive) in the assay on OVCAR-3; 18.7 µM (inactive) in the assay on SNB-19. In addition, the GI50 in the assay on LOX IMVI was 13.1 µM (inactive); with UACC-257, 16.7 µM (inactive); in the assay with SK-MEL-2, 17.9 µM (inactive); in the assay with COLO 205, 17.5 µM (inactive); in the assay with OVCAR-5 it was 15 µM (inactive); with HL-60, 17.3 µM (inactive). The GI50 was 16 µM (inactive) in the assay with PC-3; 14.3 µM (inactive) with UACC-62; 16.9 µM (inactive) in the assay with NCI-H226; 15 µM in the assay on HCT-15; 14.7 µM (inactive) with NCI-H460; 21.8 µM (inactive) with Malme-3M. The GI50 in the assay on SF-539 is 31.2 µM (inactive); with M14 it was 18.2 µM (inactive).
`CC1(C)CCC2=C(O1)/C(=N\Nc1ccc(F)cc1)c1ccccc1C2=O`: the GI50 with RPMI-8226 was 40.4 µM (inactive); in the assay on Hs-578T, 28.4 µM (inactive); in the assay with A498, 30.3 µM (inactive); in the assay on SK-MEL-5, 8.91 µM (inactive); in the assay on OVCAR-3, 21 µM (inactive); with SNB-19, 35.6 µM (inactive). In addition, the GI50 in the assay with LOX IMVI is 11.5 µM (inactive); in the assay on UACC-257, 17.3 µM (inactive); in the assay on SK-MEL-2, 32.3 µM (inactive); in the assay on COLO 205 it was 35.1 µM (inactive); in the assay on OVCAR-5, 35.6 µM (inactive); with HL-60 it was 16 µM (inactive). In addition, the GI50 with PC-3 was 34.8 µM (inactive); in the assay on UACC-62 it was 14.7 µM (inactive); in the assay with NCI-H226 it was > 100 µM (inactive); with HCT-15 it was 43.6 µM; with NCI-H460 it was 23.9 µM (inactive); in the assay with Malme-3M, 30.6 µM (inactive). Further, the GI50 is 46.9 µM (inactive) in the assay with SF-539 and 20.1 µM (inactive) with M14.
